Measured values: the NIST ThermoML archive (doi:10.1021/je060271a)
± gives the expanded uncertainty stated by the source.

Settings: 283.16 K, Liquid, Vibrating tube method

CCCC(=O)OCC(COC(=O)CCC)(COC(=O)CCC)COC(=O)CCC [pentaerythritol tetrabutyrate]
Settings | mass density [kg/m3]
5025.9 kPa | 1062 ± 1.3
5026.2 kPa | 1062.1 ± 1.3
5026.4 kPa | 1061.9 ± 1.3
5026.6 kPa | 1061.9 ± 1.3
5037.7 kPa | 1062 ± 1.3
5052.7 kPa | 1062 ± 1.3
5084.5 kPa | 1061.9 ± 1.3
5099.4 kPa | 1062.1 ± 1.3
5117.2 kPa | 1062.1 ± 1.3
5132.1 kPa | 1062.1 ± 1.3
5146.8 kPa | 1062.1 ± 1.3
5164.5 kPa | 1062.1 ± 1.3
5180.2 kPa | 1062 ± 1.3
5195.4 kPa | 1062.1 ± 1.3
5213.6 kPa | 1062.2 ± 1.3
5229.7 kPa | 1062.1 ± 1.3
5245.8 kPa | 1062.1 ± 1.3
5261.4 kPa | 1062.2 ± 1.3
5277.3 kPa | 1062.1 ± 1.3
5296.5 kPa | 1062.2 ± 1.3
5312.6 kPa | 1062.2 ± 1.3
5328.5 kPa | 1062.1 ± 1.3
5347.8 kPa | 1062.1 ± 1.3
5364.8 kPa | 1062.2 ± 1.3
5381.7 kPa | 1062.1 ± 1.3
5398.7 kPa | 1062.3 ± 1.3
5419.8 kPa | 1062.2 ± 1.3
5436.6 kPa | 1062.3 ± 1.3
5450.9 kPa | 1062.3 ± 1.3
5465.9 kPa | 1062.2 ± 1.3
5510.3 kPa | 1062.3 ± 1.3
5516.6 kPa | 1062.3 ± 1.3
5521.7 kPa | 1062.3 ± 1.3
5526.9 kPa | 1062.3 ± 1.3
5532.8 kPa | 1062.3 ± 1.3
5538.2 kPa | 1062.2 ± 1.3
5543.2 kPa | 1062.3 ± 1.3
5548.7 kPa | 1062.2 ± 1.3
5553.9 kPa | 1062.3 ± 1.3
5560.3 kPa | 1062.2 ± 1.3
5565.4 kPa | 1062.2 ± 1.3
5570.9 kPa | 1062.4 ± 1.3
5577.1 kPa | 1062.3 ± 1.3
5582.3 kPa | 1062.3 ± 1.3
5587.5 kPa | 1062.3 ± 1.3
5592.9 kPa | 1062.4 ± 1.3
5599.3 kPa | 1062.2 ± 1.3
5604.6 kPa | 1062.4 ± 1.3
5610 kPa | 1062.4 ± 1.3
5616.4 kPa | 1062.4 ± 1.3
5621.6 kPa | 1062.3 ± 1.3
5627.3 kPa | 1062.3 ± 1.3
5632.6 kPa | 1062.3 ± 1.3
5639.2 kPa | 1062.3 ± 1.3
5644.4 kPa | 1062.3 ± 1.3
5649.9 kPa | 1062.3 ± 1.3
5655.3 kPa | 1062.3 ± 1.3
5661.7 kPa | 1062.4 ± 1.3
5667.2 kPa | 1062.2 ± 1.3
5674 kPa | 1062.4 ± 1.3
5679.3 kPa | 1062.4 ± 1.3
5684.7 kPa | 1062.3 ± 1.3
5690 kPa | 1062.3 ± 1.3
5696.8 kPa | 1062.3 ± 1.3
5702.1 kPa | 1062.4 ± 1.3
5707.9 kPa | 1062.3 ± 1.3
5713.6 kPa | 1062.5 ± 1.3
5720.3 kPa | 1062.4 ± 1.3
5725.5 kPa | 1062.5 ± 1.3
5731.2 kPa | 1062.4 ± 1.3
5736.6 kPa | 1062.5 ± 1.3
5743.3 kPa | 1062.3 ± 1.3
5749 kPa | 1062.4 ± 1.3
5754.4 kPa | 1062.4 ± 1.3
5761.1 kPa | 1062.4 ± 1.3
5766.6 kPa | 1062.4 ± 1.3
5773.7 kPa | 1062.5 ± 1.3
5779.1 kPa | 1062.4 ± 1.3
5803.1 kPa | 1062.5 ± 1.3
5808.7 kPa | 1062.4 ± 1.3
5814.4 kPa | 1062.5 ± 1.3
5821.5 kPa | 1062.5 ± 1.3
5827.2 kPa | 1062.4 ± 1.3
5833 kPa | 1062.4 ± 1.3
5839.6 kPa | 1062.5 ± 1.3
5845.5 kPa | 1062.5 ± 1.3
5851.5 kPa | 1062.4 ± 1.3
5857.2 kPa | 1062.5 ± 1.3
5864.2 kPa | 1062.5 ± 1.3
5869.9 kPa | 1062.5 ± 1.3
5876.8 kPa | 1062.5 ± 1.3
5882.3 kPa | 1062.4 ± 1.3
5888.4 kPa | 1062.6 ± 1.3
5894.6 kPa | 1062.4 ± 1.3
5901.3 kPa | 1062.5 ± 1.3
5907.2 kPa | 1062.5 ± 1.3
5913.3 kPa | 1062.5 ± 1.3
5919.5 kPa | 1062.5 ± 1.3
5926.4 kPa | 1062.5 ± 1.3
5932.3 kPa | 1062.6 ± 1.3
5938.5 kPa | 1062.6 ± 1.3
5944.6 kPa | 1062.5 ± 1.3
5951.6 kPa | 1062.5 ± 1.3
5957.7 kPa | 1062.5 ± 1.3
5963.8 kPa | 1062.5 ± 1.3
5971 kPa | 1062.5 ± 1.3
5977.1 kPa | 1062.7 ± 1.3
5983.3 kPa | 1062.6 ± 1.3
5989.3 kPa | 1062.6 ± 1.3
5996.6 kPa | 1062.6 ± 1.3
6002.8 kPa | 1062.6 ± 1.3
6009.4 kPa | 1062.5 ± 1.3
6016.2 kPa | 1062.6 ± 1.3
6022.5 kPa | 1062.7 ± 1.3
6029.9 kPa | 1062.5 ± 1.3
6036 kPa | 1062.6 ± 1.3
6042.3 kPa | 1062.6 ± 1.3
6048.4 kPa | 1062.6 ± 1.3
6056 kPa | 1062.7 ± 1.3
6062 kPa | 1062.6 ± 1.3
6068.3 kPa | 1062.6 ± 1.3
6075.9 kPa | 1062.6 ± 1.3
6082.1 kPa | 1062.6 ± 1.3
6088.5 kPa | 1062.6 ± 1.3
6095.2 kPa | 1062.7 ± 1.3
6100.5 kPa | 1062.6 ± 1.3
6106.9 kPa | 1062.6 ± 1.3
6114.5 kPa | 1062.7 ± 1.3
6120.9 kPa | 1062.6 ± 1.3
6127.1 kPa | 1062.6 ± 1.3
6134.7 kPa | 1062.6 ± 1.3
6140.7 kPa | 1062.6 ± 1.3
6147.1 kPa | 1062.7 ± 1.3
6153.9 kPa | 1062.7 ± 1.3
6161.5 kPa | 1062.6 ± 1.3
6167.9 kPa | 1062.6 ± 1.3
6174.6 kPa | 1062.7 ± 1.3
6182.6 kPa | 1062.6 ± 1.3
6188.8 kPa | 1062.7 ± 1.3
6195.4 kPa | 1062.8 ± 1.3
6202.1 kPa | 1062.6 ± 1.3
6210.1 kPa | 1062.8 ± 1.3
6216.6 kPa | 1062.6 ± 1.3
6223.4 kPa | 1062.6 ± 1.3
6229.9 kPa | 1062.6 ± 1.3
6237.5 kPa | 1062.7 ± 1.3
